Assay results from ChEMBL document CHEMBL1135075, “Synthesis and biological evaluation of imidazol-2-one and 2-cyanoiminoimidazole derivatives: novel series of PDE4 inhibitors” (Bioorg Med Chem Lett, 2002).

What was measured:
[1] = system: Rattus norvegicus; assay: Tested in vivo for lowest active dose that induced inhibitory effect on gastric emptying in rats; type: functional, Stomach
[2] = target: 3',5'-cyclic-AMP phosphodiesterase 4B (Homo sapiens, UniProt Q07343); assay: Inhibitory activity against recombinant phosphodiesterase 4B (PDE4B) of human mononuclear lymphocytes
Chain of 3',5'-cyclic-AMP phosphodiesterase 4B (Q07343 whole entry): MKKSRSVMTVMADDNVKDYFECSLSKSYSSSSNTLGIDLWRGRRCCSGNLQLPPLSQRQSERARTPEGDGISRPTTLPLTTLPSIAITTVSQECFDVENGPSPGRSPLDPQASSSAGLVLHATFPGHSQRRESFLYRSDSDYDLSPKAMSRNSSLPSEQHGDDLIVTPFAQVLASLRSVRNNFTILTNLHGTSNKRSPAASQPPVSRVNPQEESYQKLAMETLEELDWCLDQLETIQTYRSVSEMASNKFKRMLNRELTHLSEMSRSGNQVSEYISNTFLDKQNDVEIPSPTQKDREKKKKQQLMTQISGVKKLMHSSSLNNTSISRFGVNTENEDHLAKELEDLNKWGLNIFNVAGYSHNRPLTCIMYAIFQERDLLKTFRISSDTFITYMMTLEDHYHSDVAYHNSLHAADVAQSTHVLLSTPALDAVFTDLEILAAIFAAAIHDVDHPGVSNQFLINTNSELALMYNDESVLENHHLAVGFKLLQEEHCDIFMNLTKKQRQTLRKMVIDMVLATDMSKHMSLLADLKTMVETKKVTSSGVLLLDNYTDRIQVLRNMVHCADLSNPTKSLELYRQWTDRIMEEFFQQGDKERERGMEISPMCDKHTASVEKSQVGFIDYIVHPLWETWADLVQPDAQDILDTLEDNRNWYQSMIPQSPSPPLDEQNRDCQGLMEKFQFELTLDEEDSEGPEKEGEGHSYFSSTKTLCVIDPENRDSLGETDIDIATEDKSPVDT

[3] = system: Mus musculus; assay: Evaluated for antiinflammatory activity in the TPA induced ear inflammation model at a dose 2 mg/kg (50 ug); type: functional
[4] = system: Mus musculus; assay: Evaluated for antiinflammatory activity in the TPA induced ear inflammation model at a dose 1 mg/kg (25 ug); type: functional
[5] = target: Phosphodiesterase 4 (Rattus norvegicus, UniProt P14270+P14646+P14644+P54748); assay: Displacement of [3H]rolipram from rat forebrain membrane; type: tissue-based, Brain

Compound | LAD [1] [mg/kg] | IC50 [2] [nM] | inhibition in vivo at 2 mg/kg [3] [%] | inhibition in vivo at 1 mg/kg [4] [%] | Ki [5] [nM]
COc1ccc(C(C)(C)Cn2ccnc2O)cc1OC1CCCC1 | 0.63 | 367 |  |  | 
CC(Cn1ccnc1O)c1ccc(OC(F)F)c(OC2CCCC2)c1 (centres undefined) | 0.02 | < 10 |  |  | 
COc1ccc(C2(Cn3ccnc3O)CC2)cc1OC1CCCC1 | 0.63 | 341 | 66 | 18 | 
COc1ccc(C(C)Cn2ccnc2O)cc1OC1CCCC1 (centres undefined) | 0.01 | 24.1 |  |  | 
COc1ccc(C(C)Cn2ccnc2NC#N)cc1OCCC1Cc2ccccc2C1 (centres undefined) | >1.25 | 67.6 |  |  | 
COc1ccc(C(C)Cn2ccnc2NC#N)cc1OC1CCCC1 (centres undefined) | 1.25 |  | 84 | 50 | 
CC(Cn1ccnc1NC#N)c1ccc(OC(F)F)c(OCC2CC2)c1 (centres undefined) | 0.08 |  | 52 | 22 | 
CC(Cn1ccnc1O)c1ccc(OC(F)(F)F)c(OC2CCCC2)c1 (centres undefined) | 1.25 | > 1000 |  |  | 
COc1ccc(C(C)Cn2ccnc2NC#N)cc1OC1CCOC1 (centres undefined) | >1.25 |  | 71 | 38 | 
COc1ccc(C(F)Cn2ccnc2O)cc1OC1Cc2ccccc2C1 (centres undefined) | 0.08 | 24.3 |  |  | 
COc1ccc(C(C)Cn2ccnc2O)cc1OC1CCOC1 (centres undefined) | 0.02 |  |  |  | 
CC(Cn1ccnc1NC#N)c1ccc(OC(F)F)c(OCCCCCc2ccccc2)c1 (centres undefined) | >1.25 | 28.4 | 69 | 41 | 
COc1ccc(C(C)Cn2ccnc2NC#N)cc1OCCCCCc1ccccc1 (centres undefined) | >1.25 |  | 77 | 36 | 
COc1ccc([C@H](C)Cn2ccnc2NC#N)cc1OC1Cc2ccccc2C1 | >5 |  |  | 54 | 220
COc1ccc([C@@H](C)Cn2cc[nH]/c2=N\C#N)cc1OC1Cc2ccccc2C1 | 2.5 |  |  | 56 | 63
COc1ccc(C(O)Cn2ccnc2O)cc1OC1Cc2ccccc2C1 (centres undefined) | 0.31 | 399 |  |  | 
COc1ccc(C(C)C(C)n2ccnc2O)cc1OC1CCCC1 (centres undefined) |  | 277 |  |  | 
COc1ccc(CCn2ccnc2O)cc1OC1CCCC1 | 0.08 | 110 | 81 | 32 | 
COc1ccc(C(C)Cn2ccnc2NC#N)cc1OC1Cc2ccccc2C1 (centres undefined) | 2.5 |  | 82 | 51 | 180
COc1ccc(C(C)Cn2ccnc2NC#N)cc1OCC1CC1 (centres undefined) | 1.25 |  | 78 | 38 | 
COc1ccc(C(C)Cn2ccnc2O)cc1OC1CC2CCC1C2 (centres undefined) | 0.01 | 21 | 90 | 34 | 
COc1ccc(C(C)(F)Cn2ccnc2O)cc1OC1CCOC1 (centres undefined) | 0.31 | 327 |  |  | 
COc1ccc(C(C)(O)Cn2ccnc2O)cc1OC1CCOC1 (centres undefined) | 0.31 | > 1000 |  |  | 
Oc1nccn1CC1(c2ccc(OC(F)F)c(OC3CCCC3)c2)CC1 | 0.08 | 39.2 |  |  | 
COc1ccc(C(=O)Cn2ccnc2O)cc1OC1CCCC1 | 1.25 | 486 |  |  | 
COc1ccc(C(=O)Nc2c(Cl)cncc2Cl)cc1OC1CCCC1 | 0.5 |  | 69 | 43 | 
COc1ccc(C(C)Cn2ccnc2O)cc1OCC1CC1 (centres undefined) | 0.01 | 85.8 | 74 | 56 | 3.5
COc1ccc([C@]2(C#N)CC[C@@H](C(=O)O)CC2)cc1OC1CCCC1 [CILOMILAST] | 5 |  | 88 | 69 | 
COc1ccc(C2CNC(=O)C2)cc1OC1CCCC1 (centres undefined) [ROLIPRAM] | 0.04 |  | 43 | 6 | 
